Reference: ChEMBL document CHEMBL3885861, “Open TG-GATES”

Species on record: Rattus norvegicus
Assay: Open TG-GATES - Regimen: Single
Format: toxicity, organism-based, Sprague-Dawley
Parameters: regimen Single, gender Male, age 6 weeks
Settings: in vivo, po, route gavage; for TC / TP / gamma-GTP / ALP / ALT / AST / BUN / CRE / Cl / IP / LDH / PL / RALB / TBIL / Ca / DBIL / K / Na: tissue Plasma; for APTT / Bas / Eos / Fbg / Hb / Ht / Lym / MCH / MCHC / MCV / Mono / PT / Plat / RBC / Ret / WBC: tissue Blood; for KIDNEY_L / KIDNEY_R / KIDNEY_TOTAL: tissue Kidney; for LIVER: tissue Liver
[1] = 0 mg/kg, 24 h, dose level Control

Question: Which results are given for `C#C[C@]1(O)CC[C@H]2[C@@H]3CCc4cc(O)ccc4[C@H]3CC[C@@]21C` [ETHINYL ESTRADIOL]?
Answer: TC [1]: 84.6 mg/dL; TP [1]: 5.4 g/dL; gamma-GTP [1]: 0.8 IU/L; TERMINAL_BW (1 mg/kg, 3 h, dose level Low): 195 g; APTT (1 mg/kg, 3 h, dose level Low): 16.3 s; Bas (1 mg/kg, 3 h, dose level Low): 0%; Eos (1 mg/kg, 3 h, dose level Low): 1%; Fbg (1 mg/kg, 3 h, dose level Low): 258.2 mg/dL; Hb (1 mg/kg, 3 h, dose level Low): 13 g/dL; Ht (1 mg/kg, 3 h, dose level Low): 39.1%; Lym (1 mg/kg, 3 h, dose level Low): 80.2%; MCH (1 mg/kg, 3 h, dose level Low): 21.9 pg; MCHC (1 mg/kg, 3 h, dose level Low): 33.4%; MCV (1 mg/kg, 3 h, dose level Low): 65.4 fL; Mono (1 mg/kg, 3 h, dose level Low): 3.4%; PT (1 mg/kg, 3 h, dose level Low): 12.3 s; Plat (1 mg/kg, 3 h, dose level Low): 118.9 x10_4/uL; RBC (1 mg/kg, 3 h, dose level Low): 598.2 x10_4/ul; Ret (1 mg/kg, 3 h, dose level Low): 9.4%; WBC (1 mg/kg, 3 h, dose level Low): 96.2 x10_2/uL; KIDNEY_L (1 mg/kg, 3 h, dose level Low): 0.8 g; KIDNEY_R (1 mg/kg, 3 h, dose level Low): 0.8 g; KIDNEY_TOTAL (1 mg/kg, 3 h, dose level Low): 1.6 g; LIVER (1 mg/kg, 3 h, dose level Low): 8.5 g; ALP (1 mg/kg, 3 h, dose level Low): 1630.2 IU/L; ALT (1 mg/kg, 3 h, dose level Low): 49 IU/L; AST (1 mg/kg, 3 h, dose level Low): 78.4 IU/L; BUN (1 mg/kg, 3 h, dose level Low): 11 mg/dL; CRE (1 mg/kg, 3 h, dose level Low): 0.2 mg/dL; Cl (1 mg/kg, 3 h, dose level Low): 106 meq/L; IP (1 mg/kg, 3 h, dose level Low): 9.2 mg/dL; LDH (1 mg/kg, 3 h, dose level Low): 54.2 IU/L; PL (1 mg/kg, 3 h, dose level Low): 146.4 mg/dL; RALB (1 mg/kg, 3 h, dose level Low): 2.6 g/dL; TBIL (1 mg/kg, 3 h, dose level Low): 0.038 mg/dL; TC (1 mg/kg, 3 h, dose level Low): 77.6 mg/dL; TP (1 mg/kg, 3 h, dose level Low): 5.5 g/dL; TERMINAL_BW (1 mg/kg, 6 h, dose level Low): 195.9 g; APTT (1 mg/kg, 6 h, dose level Low): 15.3 s; Bas (1 mg/kg, 6 h, dose level Low): 0%; Eos (1 mg/kg, 6 h, dose level Low): 1%; Fbg (1 mg/kg, 6 h, dose level Low): 262.8 mg/dL; Hb (1 mg/kg, 6 h, dose level Low): 12.9 g/dL; Ht (1 mg/kg, 6 h, dose level Low): 38.6%; Lym (1 mg/kg, 6 h, dose level Low): 68.6%; MCH (1 mg/kg, 6 h, dose level Low): 21.8 pg; MCHC (1 mg/kg, 6 h, dose level Low): 33.5%; MCV (1 mg/kg, 6 h, dose level Low): 65.2 fL; Mono (1 mg/kg, 6 h, dose level Low): 2.4%; PT (1 mg/kg, 6 h, dose level Low): 12.4 s; Plat (1 mg/kg, 6 h, dose level Low): 110.9 x10_4/uL; RBC (1 mg/kg, 6 h, dose level Low): 591.6 x10_4/ul; Ret (1 mg/kg, 6 h, dose level Low): 9.8%; WBC (1 mg/kg, 6 h, dose level Low): 83.7 x10_2/uL; KIDNEY_L (1 mg/kg, 6 h, dose level Low): 0.8 g; KIDNEY_R (1 mg/kg, 6 h, dose level Low): 0.8 g; KIDNEY_TOTAL (1 mg/kg, 6 h, dose level Low): 1.7 g; LIVER (1 mg/kg, 6 h, dose level Low): 8 g; ALP (1 mg/kg, 6 h, dose level Low): 1545.4 IU/L; ALT (1 mg/kg, 6 h, dose level Low): 40.8 IU/L; AST (1 mg/kg, 6 h, dose level Low): 80.8 IU/L; BUN (1 mg/kg, 6 h, dose level Low): 8 mg/dL; CRE (1 mg/kg, 6 h, dose level Low): 0.2 mg/dL; Ca (1 mg/kg, 6 h, dose level Low): 10.5 mg/dL; Cl (1 mg/kg, 6 h, dose level Low): 109.4 meq/L; DBIL (1 mg/kg, 6 h, dose level Low): 0.01 mg/dL; IP (1 mg/kg, 6 h, dose level Low): 10 mg/dL; K (1 mg/kg, 6 h, dose level Low): 4 meq/L; LDH (1 mg/kg, 6 h, dose level Low): 42.2 IU/L; Na (1 mg/kg, 6 h, dose level Low): 144.6 meq/L; PL (1 mg/kg, 6 h, dose level Low): 112 mg/dL; RALB (1 mg/kg, 6 h, dose level Low): 2.4 g/dL; TBIL (1 mg/kg, 6 h, dose level Low): 0.04 mg/dL; TC (1 mg/kg, 6 h, dose level Low): 55 mg/dL; TP (1 mg/kg, 6 h, dose level Low): 5.2 g/dL; TERMINAL_BW (1 mg/kg, 9 h, dose level Low): 196.1 g; APTT (1 mg/kg, 9 h, dose level Low): 15.5 s; Bas (1 mg/kg, 9 h, dose level Low): 0%; Eos (1 mg/kg, 9 h, dose level Low): 0.8%; Fbg (1 mg/kg, 9 h, dose level Low): 265.6 mg/dL; Hb (1 mg/kg, 9 h, dose level Low): 12.7 g/dL; Ht (1 mg/kg, 9 h, dose level Low): 37.6%; Lym (1 mg/kg, 9 h, dose level Low): 75.4%; MCH (1 mg/kg, 9 h, dose level Low): 21.9 pg; MCHC (1 mg/kg, 9 h, dose level Low): 33.7%; MCV (1 mg/kg, 9 h, dose level Low): 65.1 fL; Mono (1 mg/kg, 9 h, dose level Low): 2.4%; PT (1 mg/kg, 9 h, dose level Low): 12.8 s; Plat (1 mg/kg, 9 h, dose level Low): 110 x10_4/uL; RBC (1 mg/kg, 9 h, dose level Low): 578.2 x10_4/ul; Ret (1 mg/kg, 9 h, dose level Low): 9.3%; WBC (1 mg/kg, 9 h, dose level Low): 75.5 x10_2/uL; KIDNEY_L (1 mg/kg, 9 h, dose level Low): 0.9 g; KIDNEY_R (1 mg/kg, 9 h, dose level Low): 0.8 g; KIDNEY_TOTAL (1 mg/kg, 9 h, dose level Low): 1.7 g; LIVER (1 mg/kg, 9 h, dose level Low): 7.7 g; ALP (1 mg/kg, 9 h, dose level Low): 1698.8 IU/L; ALT (1 mg/kg, 9 h, dose level Low): 37.6 IU/L; AST (1 mg/kg, 9 h, dose level Low): 75.6 IU/L; BUN (1 mg/kg, 9 h, dose level Low): 9.2 mg/dL; CRE (1 mg/kg, 9 h, dose level Low): 0.2 mg/dL; Ca (1 mg/kg, 9 h, dose level Low): 10.6 mg/dL; Cl (1 mg/kg, 9 h, dose level Low): 109 meq/L; DBIL (1 mg/kg, 9 h, dose level Low): 0.012 mg/dL; IP (1 mg/kg, 9 h, dose level Low): 10.2 mg/dL; K (1 mg/kg, 9 h, dose level Low): 3.8 meq/L; LDH (1 mg/kg, 9 h, dose level Low): 40.6 IU/L; Na (1 mg/kg, 9 h, dose level Low): 145.2 meq/L; PL (1 mg/kg, 9 h, dose level Low): 96.4 mg/dL; RALB (1 mg/kg, 9 h, dose level Low): 2.5 g/dL; TBIL (1 mg/kg, 9 h, dose level Low): 0.042 mg/dL; TC (1 mg/kg, 9 h, dose level Low): 44.8 mg/dL; TP (1 mg/kg, 9 h, dose level Low): 5.2 g/dL; gamma-GTP (1 mg/kg, 9 h, dose level Low): 1.2 IU/L; TERMINAL_BW (1 mg/kg, 24 h, dose level Low): 200.1 g; APTT (1 mg/kg, 24 h, dose level Low): 14.9 s; Bas (1 mg/kg, 24 h, dose level Low): 0%; Eos (1 mg/kg, 24 h, dose level Low): 1%; Fbg (1 mg/kg, 24 h, dose level Low): 224.6 mg/dL; Hb (1 mg/kg, 24 h, dose level Low): 13.1 g/dL; Lym (1 mg/kg, 24 h, dose level Low): 75.2%; MCHC (1 mg/kg, 24 h, dose level Low): 34%; MCV (1 mg/kg, 24 h, dose level Low): 62.5 fL; Mono (1 mg/kg, 24 h, dose level Low): 3.4%; PT (1 mg/kg, 24 h, dose level Low): 13.2 s; Plat (1 mg/kg, 24 h, dose level Low): 107.2 x10_4/uL; RBC (1 mg/kg, 24 h, dose level Low): 619.8 x10_4/ul; Ret (1 mg/kg, 24 h, dose level Low): 7.6%; WBC (1 mg/kg, 24 h, dose level Low): 93.7 x10_2/uL; KIDNEY_L (1 mg/kg, 24 h, dose level Low): 0.9 g; KIDNEY_R (1 mg/kg, 24 h, dose level Low): 0.9 g; KIDNEY_TOTAL (1 mg/kg, 24 h, dose level Low): 1.8 g; LIVER (1 mg/kg, 24 h, dose level Low): 9.3 g; ALP (1 mg/kg, 24 h, dose level Low): 2023.4 IU/L; AST (1 mg/kg, 24 h, dose level Low): 74.8 IU/L; CRE (1 mg/kg, 24 h, dose level Low): 0.2 mg/dL; Ca (1 mg/kg, 24 h, dose level Low): 10.8 mg/dL; Cl (1 mg/kg, 24 h, dose level Low): 106.4 meq/L; DBIL (1 mg/kg, 24 h, dose level Low): 0.024 mg/dL; IP (1 mg/kg, 24 h, dose level Low): 7.4 mg/dL; K (1 mg/kg, 24 h, dose level Low): 4 meq/L; LDH (1 mg/kg, 24 h, dose level Low): 59.6 IU/L; Na (1 mg/kg, 24 h, dose level Low): 142.8 meq/L; PL (1 mg/kg, 24 h, dose level Low): 113.6 mg/dL; RALB (1 mg/kg, 24 h, dose level Low): 2.5 g/dL; TBIL (1 mg/kg, 24 h, dose level Low): 0.034 mg/dL; TC (1 mg/kg, 24 h, dose level Low): 40.8 mg/dL; TP (1 mg/kg, 24 h, dose level Low): 5.3 g/dL; gamma-GTP (1 mg/kg, 24 h, dose level Low): 1.2 IU/L
